Reference: patent US20070128217A1 (priority 2003, published 2007)

Assays:
[1] = system: control sera (pooled serum of ten healthy LUMC hospital workers; commercial negative donor pooled serum from the Dutch bloodbank); format: binding, human; parameters: Binding of Control serum LUMC to linear peptides / Binding of Control serum Blood-bank to linear peptides / Binding of Control serum LUMC to looped peptides / Binding of Control Serum Blood-Bank to Looped peptides / Binding of Control serum LUMC to linear peptides of the protein M of SARS-CoV Urbani / Binding of Control serum Blood-bank to linear peptides of the protein M of SARS-CoV Urbani / Binding of Control serum LUMC to looped peptides of the protein M of SARS-CoV Urbani / Binding of Control Serum Blood-Bank to Looped peptides of the protein M of SARS-CoV Urbani: unit not given here
[2] = system: antibodies in sera from SARS patients (sera 1a, 1b, 2, 6, 37, 62, London, SARS-yellow, SARS-green); format: binding, human; parameters: Binding of serum 6 to linear peptides of protein X1 of SARS-CoV Urbani / Binding of serum 37 to linear peptides of protein X1 of SARS-CoV Urbani / Binding of serum 6 to looped/cyclic peptide (PEPSCAN-ELISA) / Binding of serum 37 to looped/cyclic peptide (PEPSCAN-ELISA) / Binding of serum 37 to looped/cyclic peptides of protein X1 of SARS-CoV Urbani / Binding of serum 6 to linear peptides of protein X2 / Binding of serum 37 to linear peptides of protein X2 / Binding of serum 37 to looped/cyclic peptides of protein X2 of SARS-CoV Urbani / Binding of serum 6 to linear peptides of protein M of SARS-CoV Urbani / Binding of serum 37 to linear peptides of protein M of SARS-CoV Urbani / Binding of serum 6 to looped/cyclic peptides of protein M of SARS-CoV Urbani / Binding of serum 37 to looped/cyclic peptides of protein M of SARS-CoV Urbani / Binding of serum 6 to linear peptides of protein X3 of SARS-CoV Urbani / Binding of serum 37 to linear peptides of protein X3 of SARS-CoV Urbani / Binding of serum 37 to looped/cyclic peptides of protein X3 of SARS-CoV Urbani / Binding of serum 6 to linear peptides of protein X4 of SARS-CoV Urbani / Binding of serum 37 to linear peptides of protein X4 of SARS-CoV Urbani / Binding of serum 37 to looped/cyclic peptides of protein X4 of SARS-CoV Urbani / Binding of serum 6 to linear peptides of protein X5 of SARS-CoV Urbani / Binding of serum 37 to linear peptides of protein X5 of SARS-CoV Urbani / Binding of serum 37 to looped/cyclic peptides of protein X5 of SARS-CoV Urbani / Binding of serum 6 to linear peptides of protein N of SARS-CoV Urbani / Binding of serum 37 to linear peptides of protein N of SARS-CoV Urbani / Binding of serum 6 to linear peptide (PEPSCAN-ELISA) / Binding of serum 1a to looped/cyclic peptides of protein N of SARS-CoV Urbani / Binding of serum 1b to looped/cyclic peptides of protein N of SARS-CoV Urbani / Binding of serum 2 to looped/cyclic peptides of protein N of SARS-CoV Urbani / Binding of serum 6 to looped/cyclic peptides of protein N of SARS-CoV Urbani / Binding of serum 37 to looped/cyclic peptides of protein N of SARS-CoV Urbani / Binding of serum 62 to looped/cyclic peptides of protein N of SARS-CoV Urbani / Binding of serum London to looped/cyclic peptides of protein N of SARS-CoV Urbani / Binding of serum SARS-green to looped/cyclic peptides of protein N of SARS-CoV Urbani: unit not given here
[3] = system: rabbit serum obtained by immunizing a rabbit with the SARS-CoV strain Frankfurt 1; format: binding; parameters: Binding of a rabbit serum to linear peptides / Binding of a rabbit serum to looped peptides / Rabbit serum linear peptides / Rabbit serum looped peptides / Binding of a rabbit serum to linear peptides of protein N of SARS-CoV Urbani (Rabbit serum linear peptides) / Binding of a rabbit serum to looped/cyclic peptides of protein N of SARS-CoV Urbani (Rabbit serum looped peptides): unit not given here

GYFTEVYYQLESTQI
Binding of Control Serum Blood-Bank to Looped peptides [1]: 0.6
Binding of Control serum Blood-bank to linear peptides [1]: 0.4
Binding of Control serum LUMC to linear peptides [1]: 0.4
Binding of Control serum LUMC to looped peptides [1]: 0.7
Binding of serum 1a to linear peptides of protein X1 of SARS-CoV Urbani [2]: 0.7
Binding of serum 1a to looped/cyclic peptides of protein X1 of SARS-CoV Urbani [2]: 0.6
Binding of serum 1b to linear peptides of protein X1 of SARS-CoV Urbani [2]: 0.5
Binding of serum 1b to looped/cyclic peptides of protein X1 of SARS-CoV Urbani [2]: 0.5
Binding of serum 2 to linear peptides of protein X1 of SARS-CoV Urbani [2]: 0.5
Binding of serum 2 to looped/cyclic peptides of protein X1 of SARS-CoV Urbani [2]: 0.5
Binding of serum 6 to linear peptides of protein X1 of SARS-CoV Urbani [2]: 0.4
Binding of serum 6 to looped/cyclic peptides of protein X1 of SARS-CoV Urbani [2]: 0.4
Binding of serum 37 to linear peptides of protein X1 of SARS-CoV Urbani [2]: 0.6
Binding of serum 37 to looped/cyclic peptides of protein X1 of SARS-CoV Urbani [2]: 0.6
Binding of serum 62 to linear peptides of protein X1 of SARS-CoV Urbani [2]: 0.5
Binding of serum 62 to looped/cyclic peptides of protein X1 of SARS-CoV Urbani [2]: 0.6
Binding of serum London to linear peptides of protein X1 of SARS-CoV Urbani [2]: 0.3
Binding of serum London to looped/cyclic peptides of protein X1 of SARS-CoV Urbani [2]: 0.2
Binding of serum SARS-green to linear peptides of protein X1 of SARS-CoV Urbani [2]: 0.3
Binding of serum SARS-green to looped/cyclic peptides of protein X1 of SARS-CoV Urbani [2]: 0.4
Binding of serum SARS-yellow to linear peptides of protein X1 of SARS-CoV Urbani [2]: 0.4
Binding of serum SARS-yellow to looped/cyclic peptides of protein X1 of SARS-CoV Urbani [2]: 0.4
Binding of a rabbit serum to linear peptides [3]: 0.1
Binding of a rabbit serum to looped peptides [3]: 0.5

FLTLIVFTSCELYHY
Binding of Control Serum Blood-Bank to Looped peptides [1]: 0.6
Binding of Control serum Blood-bank to linear peptides [1]: 0.6
Binding of Control serum LUMC to linear peptides [1]: 0.7
Binding of Control serum LUMC to looped peptides [1]: 0.7
Binding of serum 1a to linear peptides of protein X4 of SARS-CoV Urbani [2]: 0.7
Binding of serum 1a to looped/cyclic peptides of protein X4 of SARS-CoV Urbani [2]: 0.8
Binding of serum 1b to linear peptides of protein X4 of SARS-CoV Urbani [2]: 0.6
Binding of serum 1b to looped/cyclic peptides of protein X4 of SARS-CoV Urbani [2]: 1.7
Binding of serum 2 to linear peptides of protein X4 of SARS-CoV Urbani [2]: 0.5
Binding of serum 2 to looped/cyclic peptides of protein X4 of SARS-CoV Urbani [2]: 0.8
Binding of serum 6 to linear peptides of protein X4 of SARS-CoV Urbani [2]: 0.5
Binding of serum 6 to looped/cyclic peptides of protein X4 of SARS-CoV Urbani [2]: 0.5
Binding of serum 37 to linear peptides of protein X4 of SARS-CoV Urbani [2]: 0.7
Binding of serum 37 to looped/cyclic peptides of protein X4 of SARS-CoV Urbani [2]: 0.7
Binding of serum 62 to linear peptides of protein X4 of SARS-CoV Urbani [2]: 0.7
Binding of serum 62 to looped/cyclic peptides of protein X4 of SARS-CoV Urbani [2]: 0.7
Binding of serum London to linear peptides of protein X4 of SARS-CoV Urbani [2]: 0.6
Binding of serum London to looped/cyclic peptides of protein X4 of SARS-CoV Urbani [2]: 0.3
Binding of serum SARS-green to linear peptides of protein X4 of SARS-CoV Urbani [2]: 0.6
Binding of serum SARS-green to looped/cyclic peptides of protein X4 of SARS-CoV Urbani [2]: 0.3
Binding of serum SARS-yellow to linear peptides of protein X4 of SARS-CoV Urbani [2]: 0.6
Binding of serum SARS-yellow to looped/cyclic peptides of protein X4 of SARS-CoV Urbani [2]: 0.7
Rabbit serum linear peptides [3]: 0.4
Rabbit serum looped peptides [3]: 0.5

DVIISSIVRQLFKPL
Binding of Control Serum Blood-Bank to Looped peptides of the protein X3 of SARS-CoV Urbani [1]: 0.5
Binding of Control serum Blood-bank to linear peptides of the protein X3 of SARS-CoV Urbani [1]: 0.6
Binding of Control serum LUMC to linear peptides of the protein X3 of SARS-CoV Urbani [1]: 0.4
Binding of Control serum LUMC to looped peptides of the protein X3 of SARS-CoV Urbani [1]: 0.5
Binding of serum 1a to linear peptides of protein X3 of SARS-CoV Urbani [2]: 0.7
Binding of serum 1a to looped/cyclic peptides of protein X3 of SARS-CoV Urbani [2]: 0.6
Binding of serum 1b to linear peptides of protein X3 of SARS-CoV Urbani [2]: 0.4
Binding of serum 1b to looped/cyclic peptides of protein X3 of SARS-CoV Urbani [2]: 0.2
Binding of serum 2 to linear peptides of protein X3 of SARS-CoV Urbani [2]: 0.5
Binding of serum 2 to looped/cyclic peptides of protein X3 of SARS-CoV Urbani [2]: 0.5
Binding of serum 6 to linear peptides of protein X3 of SARS-CoV Urbani [2]: 0.3
Binding of serum 6 to looped/cyclic peptides of protein X3 of SARS-CoV Urbani [2]: 0.6
Binding of serum 37 to linear peptides of protein X3 of SARS-CoV Urbani [2]: 0.6
Binding of serum 37 to looped/cyclic peptides of protein X3 of SARS-CoV Urbani [2]: 0.5
Binding of serum 62 to linear peptides of protein X3 of SARS-CoV Urbani [2]: 0.6
Binding of serum 62 to looped/cyclic peptides of protein X3 of SARS-CoV Urbani [2]: 0.4
Binding of serum London to linear peptides of protein X3 of SARS-CoV Urbani [2]: 0.6
Binding of serum London to looped/cyclic peptides of protein X3 of SARS-CoV Urbani [2]: 0.6
Binding of serum SARS-green to linear peptides of protein X3 of SARS-CoV Urbani [2]: 0.3
Binding of serum SARS-green to looped/cyclic peptides of protein X3 of SARS-CoV Urbani [2]: 0.4
Binding of serum SARS-yellow to linear peptides of protein X3 of SARS-CoV Urbani [2]: 0.2
Binding of serum SARS-yellow to looped/cyclic peptides of protein X3 of SARS-CoV Urbani [2]: 0.5
Rabbit serum linear peptides [3]: 0.5
Rabbit serum looped peptides [3]: 0.2

LLQTLVLKMLHSSSL
Binding of Control Serum Blood-Bank to Looped peptides [1]: 0.6
Binding of Control serum Blood-bank to linear peptides [1]: 0.5
Binding of Control serum LUMC to linear peptides [1]: 0.3
Binding of Control serum LUMC to looped peptides [1]: 0.6
Binding of serum 1a to linear peptides of protein X2 [2]: 0.6
Binding of serum 1a to looped/cyclic peptides of protein X2 of SARS-CoV Urbani [2]: 0.5
Binding of serum 1b to linear peptides of protein X2 [2]: 0.5
Binding of serum 1b to looped/cyclic peptides of protein X2 of SARS-CoV Urbani [2]: 0.5
Binding of serum 2 to linear peptides of protein X2 [2]: 0.3
Binding of serum 2 to looped/cyclic peptides of protein X2 of SARS-CoV Urbani [2]: 0.3
Binding of serum 6 to linear peptides of protein X2 [2]: 0.3
Binding of serum 6 to looped/cyclic peptides of protein X2 of SARS-CoV Urbani [2]: 0.7
Binding of serum 37 to linear peptides of protein X2 [2]: 0.5
Binding of serum 37 to looped/cyclic peptides of protein X2 of SARS-CoV Urbani [2]: 0.4
Binding of serum 62 to linear peptides of protein X2 [2]: 0.5
Binding of serum 62 to looped/cyclic peptides of protein X2 of SARS-CoV Urbani [2]: 0.6
Binding of serum London to linear peptides of protein X2 [2]: 0.4
Binding of serum London to looped/cyclic peptides of protein X2 of SARS-CoV Urbani [2]: 1.1
Binding of serum SARS-green to linear peptides of protein X2 [2]: 0.5
Binding of serum SARS-green to looped/cyclic peptides of protein X2 of SARS-CoV Urbani [2]: 0.3
Binding of serum SARS-yellow to linear peptides of protein X2 [2]: 0.5
Binding of serum SARS-yellow to looped/cyclic peptides of protein X2 of SARS-CoV Urbani [2]: 0.5
Binding of a rabbit serum to linear peptides [3]: 0.2
Binding of a rabbit serum to looped peptides [3]: 0.4

TRHTYQLRARSVSPK
Binding of Control Serum Blood-Bank to Looped peptides [1]: 0.7
Binding of Control serum Blood-bank to linear peptides [1]: 0.9
Binding of Control serum LUMC to linear peptides [1]: 0.9
Binding of Control serum LUMC to looped peptides [1]: 0.7
Binding of serum 1a to linear peptides of protein X4 of SARS-CoV Urbani [2]: 0.8
Binding of serum 1a to looped/cyclic peptides of protein X4 of SARS-CoV Urbani [2]: 0.8
Binding of serum 1b to linear peptides of protein X4 of SARS-CoV Urbani [2]: 0.7
Binding of serum 1b to looped/cyclic peptides of protein X4 of SARS-CoV Urbani [2]: 0.4
Binding of serum 2 to linear peptides of protein X4 of SARS-CoV Urbani [2]: 0.7
Binding of serum 2 to looped/cyclic peptides of protein X4 of SARS-CoV Urbani [2]: 0.8
Binding of serum 6 to linear peptides of protein X4 of SARS-CoV Urbani [2]: 1.3
Binding of serum 6 to looped/cyclic peptides of protein X4 of SARS-CoV Urbani [2]: 0.9
Binding of serum 37 to linear peptides of protein X4 of SARS-CoV Urbani [2]: 1.0
Binding of serum 37 to looped/cyclic peptides of protein X4 of SARS-CoV Urbani [2]: 0.7
Binding of serum 62 to linear peptides of protein X4 of SARS-CoV Urbani [2]: 0.9
Binding of serum 62 to looped/cyclic peptides of protein X4 of SARS-CoV Urbani [2]: 0.6
Binding of serum London to linear peptides of protein X4 of SARS-CoV Urbani [2]: 0.8
Binding of serum London to looped/cyclic peptides of protein X4 of SARS-CoV Urbani [2]: 0.4
Binding of serum SARS-green to linear peptides of protein X4 of SARS-CoV Urbani [2]: 0.6
Binding of serum SARS-green to looped/cyclic peptides of protein X4 of SARS-CoV Urbani [2]: 0.7
Binding of serum SARS-yellow to linear peptides of protein X4 of SARS-CoV Urbani [2]: 0.9
Binding of serum SARS-yellow to looped/cyclic peptides of protein X4 of SARS-CoV Urbani [2]: 0.7
Recognition of the peptide by the rabbit serum [3]: recognized
